Data published in patent publication EP0362382A1, “METHOD OF STERILIZING PLANT POLLEN” (VSESOJUZNY NAUCHNO-ISSLEDOVATELSKY INST. SELSKOKHOZYAISTV. …, priority 1988, dated 1989).

Test system: diploidem Roggen
Experiment: Field test of gametocidal activity (sterilisation of anthers), diploid rye
Type: in vivo
Details: Sorte Gibrid 1861/79; V. und VI. Periode der Organogenese; 1%ige wäßrige Emulsion; 8 kg/ha
Source text: (§1) Die gametozide Aktivitat der erfindungsgemäßen Sterilisationsmittel war im Feldversuch in verschiedenen bodenklimatischen Zonen mit Teilstücken von 10 m^2 Größe in drei- bis viermaliger Wiederholung festgestellt. Jedes Sterilisationsmittel wurde mindenstens 5 Jahre lang geprüft.
(§2) Die Entwicklung der Perioden der Organogenese wird zytologisch überwacht. Die Behandlung von Pflanzen mit dem Sterilisationsmittel erfolgt am Anfang der fünften Periode der Organogenese nach Kupermann.
(§3) Mit dem Ährenschieben verwirklicht man die Isolierung von Hauptähren und anderen Stockwerken in Pergamentbeuteln. Bei Weizen und Tritikale werden Einzelisolatoren benutzt. Bei Roggen schließt man je Ähre 5 bis 7 verschiedene nebeneinander befindliche Pflanzen unter einen gemeinsamen Isolator ein. Bei Hierse wird jede Rispe getrennt isoliert. Der Sterilitätsprozentsatz (X) für Weizen, Roggen, Tritikale und Hirse wird nach der Formel [formula] ermittelt.
(§4) Die Kornzahl in nicht isolierten Ähren von Kontrollpflanzen wird bedingt für 100 % Ansetzen bei freier Bestäubung angenommen.
(§5) Um zuverlässige Angaben zu erhalten, verwendet man 20 bis 25 Isolatoren jeder Wiederholung für Weizen und Tritikale, 10 .bis 15 Isolatoren jeder Wiederholung für Roggen und Hirse.
Pflanzen von diploidem Roggen Sorte Wosohod 2 werden in der V. Periode der Organogenese (nach Kupermann) mit 1%iger wäßriger Emulsion von Bis(di-n-butyläther) der δ, δ' -Thiodivaleriansäure, 4-Krboxybutyldezylsulfid, Natriumsalz der δ, δ' -Thiodivaleriansäure, Bis(2-äthylhexyläther) der δ, δ' -Thiodivaleriansäure, δ, δ' -Sulfonyldivaleriansäure, Natriumsalz der δ, δ'-Sulfonyldivaleriansäure, Kaliumsalz der δ, δ' -Sulfonyldivaleriansäure behandelt. Die Emulsion enthält 0,1 Masse% […] mit 12 bis 14 Kohlenstoffatomen und 0,01 Masse% Tetrahydrofuran. Der Verbrauch an Präparat beträgt 6 kg/ha. Als Kontrolle dienen Pflanzen, behandelt mit einem Verdünner ohne Sterilisationsmittel.
Pflanzen von diploidem Roggen Sorte Gibrid 1861/79 werden in der V. und VI. Periode der Organogenese (nach Kupermann) mit 1%iger wäßriger Emulsion von Bis(di-n-butyläther) der δ, δ' -Thiodivaleriansäure, δ, δ' -Thiodivaleriansäure, Natriumsalz der δ δ' -Thiodivaleriansäure, 4-Karboxybutyldezylsulfid, δ , δ' -Sulfonyldivaleriansäure, Kaliumsalz der δ, δ' -Sulfonyldivaleriansäuleriansäure, Kaliumalz der δ' -Sulfonyldivaleriansäure, Bis(2-äthylhexyläther) der δ, δ' -Thiodivaleriansäure behandelt. Die Emulsion enthält 0,1 Masse% Kalziumalkylbenzolsulfonat mit 12 bis 14 Kohlenstoffatomen und 0,01 Masse% Dimethylformamid. Der Verbrauch an Präparat beträgt 8 kg/ha. Als Kontrolle dienen Pflanzen, behandelt mit einem Verdünner ohne Sterilisationsmittel. Die Prüfergebnisse sind in der Tabelle 10 angegeben.

Compound	Anzahl von Körnern der Ähre bei freier Bestäubung	Anzahl von Körnern der Ähre im Isolator	Prozentsatz der Sterilität	Prozentsatz des Ansetzens von Körnern bei freier Bestäubung
CCCCOC(=O)CCCCSCCCCC(=O)OCCCC [Beispiel 44, Bis(di-n-butyläther) der δ, δ' -Thiodivaleriansäure]	60,0	0,0	100,0%	95,5%
O=C(O)CCCCSCCCCC(=O)O [Beispiel 45, δ, δ' -Thiodivaleriansäure]	58,6	0,1	99,8%	93,3%
O=C(O)CCCCSCCCCC(=O)O [Beispiel 46, Natriumsalz der δ δ' -Thiodivaleriansäure]	57,1	0,1	99,8%	90,9%
CCCCCCCCCCSCCCCC(=O)O [Beispiel 47, 4-Karboxybutyldezylsulfid]	52,8	0,0	100,0%	84,1%

Same assay, conditions: Sorte Wosohod 2; V. Periode der Organogenese; 1%ige wäßrige Emulsion; 6 kg/ha

Compound	Anzahl von Körnern der Ähre bei freier Bestäubung	Anzahl von Körnern der Ähre im Isolator	Prozentsatz der Sterilität	Prozentsatz des Ansetzens von Körnern bei freier Bestäubung
CCCCOC(=O)CCCCSCCCCC(=O)OCCCC [Beispiel 37, Bis(di-n-butyläther) der δ, δ' -Thiodivaleriansäure]	50,9	0,0	100,0%	93,2%
CCCCCCCCCCSCCCCC(=O)O [Beispiel 38, 4-Krboxybutyldezylsulfid]	50,5	0,0	100,0%	92,5%
O=C(O)CCCCSCCCCC(=O)O [Beispiel 39, Natriumsalz der δ, δ' -Thiodivaleriansäure]	50,5	0,1	99,8%	92,5%
CCCCC(CC)COC(=O)CCCCSCCCCC(=O)OCC(CC)CCCC (centres unmarked) [Beispiel 40, Bis(2-äthylhexyläther) der δ, δ' -Thiodivaleriansäure]	52,9	0,0	100,0%	96,9%
O=C(O)CCCCS(=O)(=O)CCCCC(=O)O [Beispiel 41, δ, δ' -Sulfonyldivaleriansäure]	48,4	0,1	99,8%	88,6%
O=C(O)CCCCS(=O)(=O)CCCCC(=O)O [Beispiel 42, Natriumsalz der δ, δ'-Sulfonyldivaleriansäure]	47,4	0,1	99,8%	86,8%
O=C(O)CCCCS(=O)(=O)CCCCC(=O)O [Beispiel 43, Kaliumsalz der δ, δ' -Sulfonyldivaleriansäure]	53,8	0,6	98,8%	98,5%

Test system: Winterweizen
Experiment: Field test of gametocidal activity (sterilisation of anthers), winter wheat
Type: in vivo
Details: Gordeiforme 12303; V. Periode der Organogenese; 2%ige wäßrige Emulsion; 16 kg/ha
Source text: as §1, §2, §3, §4, §5
Pflanzen des Winterweizens Sorte Mironowskaja 808 werden in der V. Periode der Organogenese durch Zerstäubung der 2%igen wäßrigen Emulsion der δ, δ' -Thiodivaleriansäure mit Hilfe einer Rückenspritze behandelt. Als Emulgiermittel wird 0,1 Masse% Kalziumalkylbenzalsulfonat mit 12 bis 14 Kohlenstoffatomen hinzugefügt. Als Adjuvans führt man in die Emulsion 0,01 Masse% Dimethylsulfoxid ein. Der Verbrauch an Präparat beträgt 20 kg/ha. Als Kontrolle dienen Pflanzen, behandelt mit einem Verdünner ohne Sterilisationsmittel. Die Ergebnisse sind in der Tabelle 1 angegeben. […] Periode der Organogenese erhalten.
Der Prozeß erfolgt analog zu dem im Beispiel 1 bescnriebenen. Als Sterilisationsmittel benutzt man 2%ige wäßrige Emulsion von Natriumsalz der δ, δ'-Thiodivaleriansäure, δ, δ' -Sulfonyldivaleriansäure, Natriumsalz der δ, δ' -Sulfonyldivaleriansäure, Kaliumsalz der δ, δ'--Sulfonyldivaleriansäure, Bis(di-n-butyläther) der δ, δ'--Thiodivaleriansäure, 4-Karboxybutyldezylsulfid bzw.
Pflanzen des Winterweizens Sorte Korall werden in der V. Periode der Organogenese (nach Kupermann) mit 2%iger wäßriger Emulsion von Bis(2-äthylhexyläther) der δ, δ' --Thiodivaleriansäure, 4-Karboxybutyldezylsulfid bzw. Bis(di--n-butyläther) der δ, δ' -Thiodivalerianqäure behandelt. Die Emulsion enthält 0,1 Masse% Kalziumalkylbenzolsulfonat mit 12 bis 14 Kohlenstoffatomen und 0,01 Masse% Dodezylsulfat. Der Verbrauch an Präparat beträgt 12 kg/ha. Als Kontrolle dienen Pflanzen, behandelt mit einem Verdünner ohne Sterilisationsmittel. Die Prüfergebnisse sind in der Tabelle 2 angegeben.
Pflanzen des Winterweizens Gordeiforme 12303 werden in der V. Periode der Organogenese (nach Kupermann) mit 2%iger wäßriger Emulsion von 4-Karboxybutyldezylsulfid, Bis(2-äthylhexyläther) der δ, δ' -Thiodivaleriansäure, δ, δ' -Sulfonyldivaleriansäure behandelt. Die Emulsion enthält als Emulgiermittel 0,1 Masse% Kalziumalkylbenzolsulfonat mit 12 bis 14 Kohlenstoffatomen und 0,01 Masse% Dimethylformamid. Der Verbrauch an Präparat beträgt 16 kg/ha. Als Kontrolle dienen Pflanzen, behandelt mit einem Verdünner ohne Sterilisationsmittel.

Compound	Anzahl von Körnern der Ähre bei freier Bestäubung	Anzahl von Körnern der Ähre im Isolator	Prozentsatz der Sterilität	Prozentsatz des Ansetzens von Körnern bei freier Bestäubung
CCCCCCCCCCSCCCCC(=O)O [Beispiel 12, 4-Karboxybutyldezylsulfid]	21,6	0,0	100,0%	74,2%
CCCCC(CC)COC(=O)CCCCSCCCCC(=O)OCC(CC)CCCC (centres unmarked) [Beispiel 13, Bis(2-äthylhexyläther) der δ, δ' -Thiodivaleriansäure]	25,3	0,0	100,0%	86,9%
O=C(O)CCCCS(=O)(=O)CCCCC(=O)O [Beispiel 14, δ, δ' -Sulfonyldivaleriansäure]	23,6	0,1	99,7%	81,1%

Same assay, conditions: Sorte Korall; V. Periode der Organogenese; 2%ige wäßrige Emulsion; 12 kg/ha

Compound	Anzahl von Körnern der Ähre bei freier Bestäubung	Anzahl von Körnern der Ähre im Isolator	Prozentsatz der Sterilität	Prozentsatz des Ansetzens von Körnern bei freier Bestäubung
CCCCC(CC)COC(=O)CCCCSCCCCC(=O)OCC(CC)CCCC (centres unmarked) [Beispiel 9, Bis(2-äthylhexyläther) der δ, δ' --Thiodivaleriansäure]	30,8	0,0	100,0%	95,1%
CCCCCCCCCCSCCCCC(=O)O [Beispiel 10, 4-Karboxybutyldezylsulfid]	29,1	0,1	99,5%	89,8%
Bis(di--n-butyläther) der δ, δ' -Thiodivalerianqäure [Beispiel 11]	30,2	0,1	99,5%	93,2%

Same assay, conditions: Sorte Mironowskaja 808; V. Periode der Organogenese; 2%ige wäßrige Emulsion; 20 kg/ha

Compound	Anzahl von Körnern der Ähre bei freier Bestäubung	Anzahl von Körnern der Ähre im Isolator	Prozentsatz der Sterilität	Prozentsatz des Ansetzens von Körnern bei freier Bestäubung
O=C([O-])CCCCS(=O)(=O)CCCCC(=O)[O-].[Na+].[Na+] [Beispiel 4, Natriumsalz der δ, δ' -Sulfonyldivaleriansäure]	34,1	0,1	99,8%	82,8%
O=C([O-])CCCCS(=O)(=O)CCCCC(=O)[O-].[K+].[K+] [Beispiel 5, Kaliumsalz der δ, δ'--Sulfonyldivaleriansäure]	40,7	0,1	99,8%	98,8%
CCCCCCCCCCSCCCCC(=O)O [Beispiel 7, 4-Karboxybutyldezylsulfid]	35,6	0,0	100,0%	86,4%
CCCCC(CC)COC(=O)CCCCSCCCCC(=O)OCC(CC)CCCC (centres unmarked) [Beispiel 8]	36,1	0,0	100,0%	87,6%
O=C(O)CCCCSCCCCC(=O)O [Beispiel I, δ, δ' -Thiodivaleriansäure]	37,0	0,5	98,8%	89,8%
Bis(di-n-butyläther) der δ, δ'--Thiodivaleriansäure [Beispiel 6]	34,8	0,0	100,0%	84,5%
